Data: patent US5194379A, “Microbial transformation process for the preparation of hydroxylanol imidazo (4,5-b) pyridines useful as angiotensin II receptor antagonists” (Merck & Co., Inc., priority 1991, dated 1993)

Biological target: T1, Angiotensin II (A II) receptor (Oryctolagus cuniculus, UniProt P34976)
T1 sequence (P34976 1-359): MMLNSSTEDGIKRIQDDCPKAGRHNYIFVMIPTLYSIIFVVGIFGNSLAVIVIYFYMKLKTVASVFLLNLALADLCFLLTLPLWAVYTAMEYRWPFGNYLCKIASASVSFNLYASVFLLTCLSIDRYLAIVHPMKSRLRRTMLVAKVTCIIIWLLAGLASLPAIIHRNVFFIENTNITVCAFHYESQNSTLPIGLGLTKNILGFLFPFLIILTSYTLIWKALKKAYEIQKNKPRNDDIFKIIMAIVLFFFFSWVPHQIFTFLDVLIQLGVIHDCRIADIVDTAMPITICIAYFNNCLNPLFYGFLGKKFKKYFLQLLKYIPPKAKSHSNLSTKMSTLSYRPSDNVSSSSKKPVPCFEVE
Assay: Receptor Binding Assay Using Rabbit Aortae Membrane Preparation (displacement of 125I-Sar1Ile8-angiotensin II)
Protocol: This assay is also referred to herein as the "IC50 " assay.
Receptor Binding Assay Using Rabbit Aortae Membrane Preparation
Three frozen rabbit aortae (obtained from Pel-Freeze Biologicals) were suspended in 5 mM Tris-0.25M Sucrose, pH 7.4 buffer (50 ml) homogenized, and then centifuged. The mixture was filtered through a cheesecloth and the supernatant was centrifuged for 30 minutes at 20,000 rpm at 4° C. The pellet thus obtained was resuspended in 30 ml of 50 mM Tris-5 mM MgCl2 buffer containing 0.2% Bovine Serum Albumin and 0.2 mg/ml Bacitration and the suspension was used for 100 assay tubes. Samples tested for screening were done in duplicate. To the membrane preparation (0.25 ml) there was added ^125 I-Sar^1 Ile^8 -angiotensin II [obtained from New England Nuclear] (10 ul; 20,000 cpm) with or without the test sample and the mixture was incubated at 37° C. for 90 minutes. The mixture was then diluted with ice-cold 50 mM Tris---0.9% NaCl, pH 7.4 (4 ml) and filtered through a glass fiber filter (GF/B Whatman 2.4" diameter). The filter was soaked in scintillation cocktail (10 ml) and counted for radioactivity using Packard 2260 Tricarb liquid scintillation counter. […]

A II antagonist activity by the IC50 assay (in words) | Structure (SMILES)
exhibit A II antagonist activity | CCc1nc2c(C)cc(CO)nc2n1Cc1ccc(-c2ccccc2-c2nnn[nH]2)cc1 [compound (I)]
exhibit A II antagonist activity | CCc1nc2c(CO)cc(C)nc2n1Cc1ccc(-c2ccccc2-c2nnn[nH]2)cc1 [compound (II)]
